Assays:
[1] = Compatibility of desloratadine with common excipients; type: physicochemical; conditions: lactose, magnesium stearate, microcrystalline stearate; degrades and changes to a pink colour
From the text: Therefore, extreme caution needs to be taken when formulating desloratadine with various excipients. […] This decomposition is further accelerated under high temperature and humid conditions.

human mast cells = conditions: in vitro; cited from earlier work

For Clc1ccc2c(c1)CCc1cccnc1C2=C1CCNCC1 [Desloratadine, 8-chloro-6,11-dihydro-11-(4-piperidylidene)-5-H-benzo [5,6] cyclohepta [1,2-b] pyridine], the “compatibility with common excipients” value [1] is given as “incompatible” and the “histamine release from human mast cells” value (human mast cells) is given as “inhibits histamine release”.

From patent US20070281960A1, “Anti-Histaminic Composition” (priority 2004, published 2007)
